Experimental data reported in US8008547B2, “Glyphosate-N-acetyltransferase (GAT) genes” (E.I. duPont de Nemours, priority 2000, dated 2011).

B1: SEQ ID NO: 196: evolved GAT gene (nucleic acid)
DNA: ATGCTAGAGGTGAAACCGATTAACGCAGAGGATACCTATGAACTAAGGCATAAAATACTCAGACCAAACCAGCCGTTAGAAGTGTGTATGTATGAAACCGATTTACTTCGTGGTGCATTTCACTTAGGCGGCTTTTACAGGGGCAAACTGATTTCCATAGCTTCATTCCACCAGGCCGAGCACTCAGACCTCCAAGGCCAGAAACAGTACCAGCTCCGAGGTATGGCTACCTTGGAAGGTTATCGTGATCAGAAAGCGGGATCGAGTCTAATTAGACACGCTGAACAAATTCTTCGTAAGAGGGGGGCGGACATGCTTTGGTGCAATGCGCGGACATCCGCCTCAGGCTACTACAAAAAGTTAGGCTTCAGCGAGCAGGGAGAGGTATTTGAAACGCCGCCAGTAGGACCTCACATCCTGATGTATAAAAGGCTCACA
modifications: Synthetic DNA Sequence; 0_6D10
notes: evolved GAT gene

Assays:
[1] = tested on: Nicotiana tabacum L. Xanthi leaf explants; experiment: Tobacco shoot regeneration with glyphosate selection; assay type: cell-based; conditions: explants lacking a GAT gene
From the text: Agrobacterium-mediated transformation of plant cells occurs at low efficiencies. To allow propagation of transformed cells while inhibiting proliferation of non-transformed cells, a selectable marker is needed. Antibiotic markers for kanamycin and hygromycin and the herbicide modifying gene bar, which detoxifies the herbicidal compound phosphinothricin, are examples of selectable markers used in plants (Methods in Molecular Biology, 1995, 49:9-18). […] An evolved GAT gene (0—5B8), SEQ ID NO: 190, was cloned between a plant promoter (enhanced strawberry vein banded virus) and a […] terminator and introduced into the T-DNA region of the binary vector pMAXY3793 suitable for transformation of plant cells via Agrobacterium tumefaciens EHA105 as shown in FIG. 12. A screenable GUS marker was present in the T-DNA to allow confirmation of transformation. Transgenic tobacco shoots were generated using glyphosate as the only selecting agent.
Axillary buds of Nicotiana tabacum L. Xanthi were subcultured on half-strength MS medium with sucrose (1.5%) and Gelrite (0.3%) under 16-h light (35-42 μEinsteins m^−2 s^−1, cool white fluorescent lamps) at 24° C. every 2-3 weeks. Young leaves were excised from plants after 2-3 weeks subculture and were cut into 3×3 mm segments. A. tumefaciens EHA105 was inoculated into LB medium and grown overnight to a density of A600=1.0. […]

tobacco plants = experiment: Herbicide spray tests of GAT expressing tobacco plants; assay type: in vivo, Nicotiana tabacum
Description: Tobacco shoots generated as described in EXAMPLE 9 were excised from the explants and transferred to basal root induction (BRI) medium composed of half-strength Murashige and Skoog (MS) medium, pH 5.7, with 1.5% sucrose, 0.3% Gelrite, 0-200 uM glyphosate and 400 ug/ml Timentin. Rooted plants and axillary shoots were clonally propagated by cutting the stem and transferring it to fresh BRI medium until the desired number of clones was obtained. Rooted plants were carefully removed from the solid medium. Prior to placing the plants into small pots of soil, the roots were washed to remove any remaining Gelrite. A protective plastic cover was kept over the plants for at least one week until the plants were well established.
To determine if GAT expressing tobacco plants could tolerate simulated field rate sprays of glyphosate, clonal lines of several events per GAT variant were tested. A typical test was set up as follows: One clone from each event was sprayed with 1 ml of solution containing the isopropylamine salt of glyphosate (Sigma P5671) and 0.125% Triton X-100, pH 6.8 such that the amount of active ingredient sprayed was equivalent to that present in commercial glyphosate products. For example, to achieve 32 oz/acre (1×) of herbicide containing 40% active ingredient (“ai”), 2.4 ul of 40% ai formulation was diluted into 1 ml water and sprayed on a plant in a 4-inch square pot (16 in^2). A mock application (0×) with surfactant only was also included. In some cases a second spray was applied 1-4 weeks later. Plants were kept in controlled growth rooms at 25° C. and 70% humidity with 16 hr light.
Seed-grown wild type plants were also sprayed. […] All 0× plants were healthy, including the non-GAT control plants. Three weeks later all of the surviving plants were sprayed with an 8× dose.

yeast strain YPH499 = experiment: Glyphosate selection of transformed yeast cells; assay type: cell-based, Saccharomyces cerevisiae; conditions: CSM-YNB-glucose medium lacking aromatic amino acids with added glyphosate
From the text: Selection markers for yeast transformation are usually auxotrophic genes that allow growth of transformed cells on a medium lacking the specific amino acid or nucleotide. Because Saccharomyces cerevisiae is sensitive to glyphosate, GAT can also be used as a selectable marker. […] This plasmid contains an E. coli origin of replication and a gene conferring carbenicillin resistance as well as a TRP1, tryptophan auxotroph selectable marker for yeast transformation.
The GAT containing construct is transformed into E. coli XL1 Blue (Statagene) and plated on LB carbenicillin (50 ug/ml) agar medium. Plasmid DNA is prepared and used to transform yeast strain YPH499 (Stratagene) using a transformation kit (Bio 101). Equal amounts of transformed cells are plated on CSM-YNB-glucose medium (Bio 101) lacking all aromatic amino acids (tryptophan, tyrosine, and phenylalanine) with added glyphosate. For comparison, p424TEF lacking the GAT gene is also introduced into YPH499 and plated as described. […] The presence of the GAT containing vector in glyphosate selected colonies can be confirmed by re-isolation of the plasmid and restriction digest analysis.

Molecule | glyphosate concentration that completely inhibited any shoot formation [1] | plant response two weeks after glyphosate spray (tobacco plants; 0.5, 2 or 4× glyphosate, vector only and seed grown wild type tobacco) | plant response after 8× dose (tobacco plants; 8× glyphosate, non-GAT 0× control tobacco plants) | function as selectable marker in yeast (yeast strain YPH499) | plant response two weeks after glyphosate spray (tobacco plants; 0.5, 2 or 4× glyphosate (1× = 32 oz/acre of 40% ai), transgenic GAT tobacco) | survival after second spray (tobacco plants; 8× glyphosate dose three weeks later, transgenic GAT tobacco)
O=C(O)CNCP(=O)(O)O [glyphosate, N-phosphonomethylglycine] | greater than 20 uM | stopped growing, wilted, and turned brown | died within two weeks |  |  | 
B1 |  |  |  | efficient selectable marker | survived the spraying procedure without signs of glyphosate damage | all GAT plants survived
